Experimental data published in US9365548B2, “Benzoimidazol-2-yl pyrimidines and pyrazines as modulators of the histamine H4 receptor” (Janssen Pharmaceutica NV, priority 2006, dated 2016).

What follows are molecules tested against T1, Recombinant Human Histamine H4 Receptor (Homo sapiens, UniProt Q9H3N8) (assay: Binding Assay on Recombinant Human Histamine H4 Receptor). Settings: competition binding with 3H-histamine, membranes of SK-N-MC or COS7 cells expressing human histamine H4 receptor; Ki by Cheng-Prusoff (KD 5 nM, ligand 5 nM); average of results obtained.
T1 construct: expressed in transfected cells; host or cells: SK-N-MC cells or COS7 cells, transiently transfected; cell membranes used
T1 sequence (Q9H3N8 whole entry): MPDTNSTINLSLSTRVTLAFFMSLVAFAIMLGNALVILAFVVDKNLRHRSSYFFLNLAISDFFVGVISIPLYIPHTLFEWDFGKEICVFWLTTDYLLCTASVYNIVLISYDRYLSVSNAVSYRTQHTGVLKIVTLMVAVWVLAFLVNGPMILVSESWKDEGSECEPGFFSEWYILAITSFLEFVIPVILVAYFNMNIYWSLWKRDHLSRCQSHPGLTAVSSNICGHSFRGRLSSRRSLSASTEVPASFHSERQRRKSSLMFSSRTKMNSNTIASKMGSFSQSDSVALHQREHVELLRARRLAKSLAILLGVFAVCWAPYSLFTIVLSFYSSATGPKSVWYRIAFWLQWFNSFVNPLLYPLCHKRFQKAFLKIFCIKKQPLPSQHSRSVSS
Description: Additional examples of embodiments of this invention are provided by hemitartrate salts of compounds of Formula (I) and by hydrates, such as monohydrates and dihydrates, of compounds of Formula (I). […]
Molecule COc1ccc2[nH]c(-c3cnc(NCCCC4CCN(C)CC4)nc3C)nc2c1 [Example 37, [5-(5-Methoxy-1H-benzoimidazol-2-yl)-4-methyl-pyrimidin-2-yl]-[3-(1-methyl-piperidin-4-yl)-propyl]-amine] has a Ki of 81 nM. Molecule Cc1nc(NCCCC2CCN(C)CC2)ncc1-c1nc2c(Cl)cc(C(F)(F)F)cc2[nH]1 [Example 38, [5-(4-Chloro-6-trifluoromethyl-1H-benzoimidazol-2-yl)-4-methyl-pyrimidin-2-yl]-[3-(1-methyl-piperidin-4-yl)-propyl]-amine] has a Ki of 2 nM. For Cc1nc(NCCCC2CCN(C)CC2)ncc1-c1nc2cc(Cl)c(F)cc2[nH]1 [Example 39, [5-(5-Chloro-6-fluoro-1H-benzoimidazol-2-yl)-4-methyl-pyrimidin-2-yl]-[3-(1-methyl-piperidin-4-yl)-propyl]-amine], the Ki was 15 nM. In the case of Cc1nc(NCCCC2CCN(C)CC2)ncc1-c1nc2cc(Cl)ccc2[nH]1 [Example 40, [5-(5-Chloro-1H-benzoimidazol-2-yl)-4-methyl-pyrimidin-2-yl]-[3-(1-methyl-piperidin-4-yl)-propyl]-amine], the Ki is reported as 7 nM. Cc1nc(NCCCC2CCN(C)CC2)ncc1-c1nc2cc(Cl)c(Cl)cc2[nH]1 [Example 41, [5-(5,6-Dichloro-1H-benzoimidazol-2-yl)-4-methyl-pyrimidin-2-yl]-[3-(1-methyl-piperidin-4-yl)-propyl]-amine] showed a Ki of 6 nM. CCc1nc(NCCCC2CCN(C)CC2)ncc1-c1nc2c(C)cc(C)cc2[nH]1 [Example 42, [5-(4,6-Dimethyl-1H-benzoimidazol-2-yl)-4-ethyl-pyrimidin-2-yl]-[3-(1-methyl-piperidin-4-yl)-propyl]-amine] gave a Ki of 22 nM. In the case of CCc1nc(NCCCC2CCN(C)CC2)ncc1-c1nc2c(C)cccc2[nH]1 [Example 43, [4-Ethyl-5-(4-methyl-1H-benzoimidazol-2-yl)-pyrimidin-2-yl]-[3-(1-methyl-piperidin-4-yl)-propyl]-amine], the Ki is reported as 110 nM. For Cc1cccc2[nH]c(-c3cnc(NCCCC4CCN(C)CC4)nc3C3CC3)nc12 [Example 44, [4-Cyclopropyl-5-(4-methyl-1H-benzoimidazol-2-yl)-pyrimidin-2-yl]-[3-(1-methyl-piperidin-4-yl)-propyl]-amine], the Ki was 560 nM. In the case of Cc1ccc2[nH]c(-c3cnc(NCCCC4CCN(C)CC4)nc3C3CC3)nc2c1C [Example 45, [4-Cyclopropyl-5-(4,5-dimethyl-1H-benzoimidazol-2-yl)-pyrimidin-2-yl]-[3-(1-methyl-piperidin-4-yl)-propyl]-amine], the Ki is reported as 390 nM. For Cc1cc(F)cc2[nH]c(-c3cnc(NCCCC4CCN(C)CC4)nc3C3CC3)nc12 [Example 46, [4-Cyclopropyl-5-(6-fluoro-4-methyl-1H-benzoimidazol-2-yl)-pyrimidin-2-yl]-[3-(1-methyl-piperidin-4-yl)-propyl]-amine], the Ki was 230 nM. In the case of Cc1cc(C)c2nc(-c3cnc(NCCCC4CCN(C)CC4)nc3C3CC3)[nH]c2c1 [Example 47, [4-Cyclopropyl-5-(4,6-dimethyl-1H-benzoimidazol-2-yl)-pyrimidin-2-yl]-[3-(1-methyl-piperidin-4-yl)-propyl]-amine], the Ki is reported as 99 nM. Cc1c(F)ccc2[nH]c(-c3cnc(NCCCC4CCN(C)CC4)nc3C3CC3)nc12 [Example 48, [4-Cyclopropyl-5-(5-fluoro-4-methyl-1H-benzoimidazol-2-yl)-pyrimidin-2-yl]-[3-(1-methyl-piperidin-4-yl)-propyl]-amine] showed a Ki of 140 nM. “[5-(4,5-Dimethyl-1H-benzoimidazol-2-yl)-4-ethyl-pyrimidin-2-yl]-methyl-[3-(1-methyl-piperidin-4-yl)-propyl]-amine [Example 8]” was tested, and the Ki was 29 nM.
